Test [1] concerns S. aureus. Kind of test: Agar diffusion test of loaded BNC fleeces against S. aureus. The test is classed as cell-based, Staphylococcus aureus. As for the experimental part:
The evaluation of the antibacterial activity of B. subtilis and B. megaterium loaded—BNC against gram-positive S. aureus was determined by an agar diffusion test. Therefore, the bacterial suspensions of B. subtilis and S. aureus were prepared in TSB broth medium as described before. […] 3 BNC fleeces were loaded using B. subtilis suspension in TSB medium, and 3 BNC fleeces were loaded using B. subtilis suspension in saline. Further 3 BNC fleeces were loaded using the B. subtilis free-supernatant, 3 BNC fleeces were loaded with gentamycin as positive control, and 3 BNC fleeces with isotonic saline as negative control. The OD600 of S. aureus was adjusted to 0.5 McFarland using sterilized saline NaCl 0.9% and the optical density spectrophotometer (Biophotometer) was determined. 20 μl of S. aureus was spread on the surface of Mueller-Hinton agar plate by a sterilized glass spreader. The last control and loaded BNC fleeces were added onto surface of the Mueller Hinton agar: 1. Negative control: saline-loaded BNC 2. Positive control: gentamicin-loaded BNC 3. B. subtilis-loaded BNC in TSB medium 4. B. subtilis-loaded BNC in saline 5. B. subtilis-free supernatant-loaded BNC.
(In general: A growth-free zone around the sample is the usual read-out of agar diffusion tests.)

Test [2] has as its system S. aureus. Put plainly: Agar well diffusion test against S. aureus (without BNC). The test is classed as cell-based, Staphylococcus aureus. How it is done:
For the agar diffusion test the OD600 of B. megaterium and B. subtilis was adjusted to 0.1 McFarland using sterilized saline NaCl 0.9%. The OD600 of S. aureus was adjusted to 0.5 McFarland using sterilized saline NaCl 0.9%. 20 μl of S. aureus was spread on the surface of Mueller-Hinton agar plate by a sterilized glass spreader. The wells are […] on the agar plate using the back side of a 1 ml pipette tip. A small volume of Mueller-Hinton agar was melted in boiling water bath, then 100 μl of it was used to close the bottom of each created well. After solidification of the agar in the bottom of the wells, the wells were filled with 100 μl of: Negative control, sterilized saline NaCl 0.9%, Positive control, gentamicin 300 μg/ml, B. megaterium or B. subtilis-free supernatant, B. megaterium or B. subtilis suspension.

As to gentamicin [Gentamycin], in test [1], the “inhibition effect on S. aureus, on BNC - injection technique” value is on record as “+ (by detection of inhibition zone > 2 mm)”; the “inhibition effect on S. aureus, on BNC - spray technique” value is on record as “+ (by detection of inhibition zone > 2 mm)”; the “inhibition effect on S. aureus, on BNC - vortex technique” value is recorded as “+ (by detection of inhibition zone > 2 mm)”. Further, the “inhibition zone (in words)” value in test [2] (agar well diffusion, 100 μl per well, 37° C., 24 h) is “inhibition zone”. Moreover, the “inhibition effect on S. aureus, Without BNC” value in test [2] (diffusion test) is “+ (by detection of inhibition zone > 2 mm)”.

(Values after patent US20220241176A1, “METHOD FOR LOADING OF MICROORGANISMS ON MULTIPHASE BIOMATERIALS” (priority 2019, published 2022).)
